Experimental data from BindingDB's records for doi:10.7270/Q2WH2TT9 (D3R/Abbott, 2020).

target: Angiopoietin-1 receptor (Homo sapiens, UniProt Q02763); experiment: D3R2025
Source text: D3R2025

Chain of Angiopoietin-1 receptor (Q02763 whole entry): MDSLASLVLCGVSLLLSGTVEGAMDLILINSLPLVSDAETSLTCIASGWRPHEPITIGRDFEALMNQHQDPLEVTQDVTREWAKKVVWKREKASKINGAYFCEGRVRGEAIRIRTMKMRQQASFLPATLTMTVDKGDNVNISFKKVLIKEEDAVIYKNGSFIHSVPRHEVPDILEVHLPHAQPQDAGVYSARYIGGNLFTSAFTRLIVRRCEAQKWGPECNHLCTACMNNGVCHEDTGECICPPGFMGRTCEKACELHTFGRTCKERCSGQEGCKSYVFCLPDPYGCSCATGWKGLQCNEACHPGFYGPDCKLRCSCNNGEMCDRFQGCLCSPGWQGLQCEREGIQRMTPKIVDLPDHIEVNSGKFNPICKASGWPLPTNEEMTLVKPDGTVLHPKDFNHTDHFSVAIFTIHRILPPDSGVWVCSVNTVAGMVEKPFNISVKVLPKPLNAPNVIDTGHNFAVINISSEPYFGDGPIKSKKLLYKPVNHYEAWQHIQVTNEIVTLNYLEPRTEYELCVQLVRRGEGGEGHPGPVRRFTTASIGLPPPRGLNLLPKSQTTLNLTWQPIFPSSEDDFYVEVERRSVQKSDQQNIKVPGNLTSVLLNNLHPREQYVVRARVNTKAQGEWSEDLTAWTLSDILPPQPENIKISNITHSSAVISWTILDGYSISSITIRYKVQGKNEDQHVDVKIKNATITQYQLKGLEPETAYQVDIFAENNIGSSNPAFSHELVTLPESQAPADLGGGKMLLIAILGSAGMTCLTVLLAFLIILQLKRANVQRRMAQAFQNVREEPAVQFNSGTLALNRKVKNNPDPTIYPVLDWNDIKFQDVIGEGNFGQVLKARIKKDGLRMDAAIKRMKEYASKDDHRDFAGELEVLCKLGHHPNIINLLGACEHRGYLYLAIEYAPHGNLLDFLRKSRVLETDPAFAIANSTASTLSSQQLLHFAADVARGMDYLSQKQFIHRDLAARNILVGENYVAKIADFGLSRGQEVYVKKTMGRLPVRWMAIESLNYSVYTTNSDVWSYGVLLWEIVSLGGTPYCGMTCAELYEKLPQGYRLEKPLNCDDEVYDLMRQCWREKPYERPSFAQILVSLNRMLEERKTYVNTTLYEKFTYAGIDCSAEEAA

| Compound | Kd [µM] |
| --- | --- |
| CNc1nccc(-c2c(-c3ccc(F)cc3)ncn2CCCN2CCOCC2)n1 | 10 |
| CNc1nccc(-c2c(-c3ccc(F)cc3)ncn2C2CCN(C)CC2)n1 [{4-[5-(4-Fluoro-phenyl)-3-(1-methyl-piperidin-4-yl)-3H-imidazol-4-yl]-pyrimidin-2-yl}-methyl-amine] | 10 |
| CCOC(=O)N1CCC(n2cnc(-c3ccc(F)cc3)c2-c2ccnc(N)n2)CC1 [4-[5-(2-Amino-pyrimidin-4-yl)-4-(4-fluoro-phenyl)-imidazol-1-yl]-piperidine-1-carboxylic acid ethyl ester] | 10 |
| CCc1nc(-c2cccc(N(C)S(=O)(=O)c3ccccc3)c2)c(-c2ccnc(Nc3ccc(N4CCN(C(C)=O)CC4)nc3)n2)s1 [D3RKN_120] | 3.2 |
| CCNc1nccc(-c2c(-c3ccc(F)cc3)ncn2C2CCN(C)CC2)n1 [Ethyl-{4-[5-(4-fluoro-phenyl)-3-(1-methyl-piperidin-4-yl)-3H-imidazol-4-yl]-pyrimidin-2-yl}-amine] | 10 |
| Cc1cc(-c2c(-c3ccc(F)cc3)ncn2CCCN2CCOCC2)nc(N)n1 | 10 |
| COc1nccc(-c2c(-c3ccc(F)cc3)ncn2CCCN2CCOCC2)n1 [4-{3-[4-(4-Fluoro-phenyl)-5-(2-methoxy-pyrimidin-4-yl)-imidazol-1-yl]-propyl}-morpholine] | 10 |
| CSc1nccc(-c2c(-c3ccc(F)cc3)ncn2CCCN2CCOCC2)n1 | 10 |
| Nc1nccc(-c2c(-c3ccc(F)cc3)ncn2C2CCN(CC(F)(F)F)CC2)n1 [4-{5-(4-Fluoro-phenyl)-3-[1-(2,2,2-trifluoro-ethyl)-piperidin-4-yl]-3H-imidazol-4-yl}-pyrimidin-2-ylamine] | 10 |

Second part, the molecule after the results:

| Kd [µM] | Compound |
| --- | --- |
| 0.093 | CC(=O)N1CCN(c2ccc(Nc3nccc(-c4sc(C(C)C)nc4-c4cccc(NS(=O)(=O)c5cccc(Cl)c5)c4)n3)cn2)CC1 [D3RKN_98] |
| 10 | O=C(Nc1cccc(-c2nn3ncccc3c2-c2ccnc(Nc3cccnc3)n2)c1)c1c(F)cccc1F |
| 0.0034 | CC(C)c1nc(-c2cccc(NS(=O)(=O)c3c(F)cccc3F)c2F)c(-c2ccnc(Nc3ccc(N4CCOCC4)nc3)n2)s1 [D3RKN_29] |
| 0.2 | COc1cc(Nc2nccc(-c3c(-c4cccc(NC(=O)c5c(F)cccc5F)c4)nn4ncccc34)n2)cc(OC)c1OC [D3RKN_124] |
| 2.5 | O=C(Nc1cccc(-c2nn3ncccc3c2-c2ccnc(Nc3ccccc3)n2)c1)c1c(F)cccc1F [D3RKN_56] |
| 10 | O=C(Nc1cccc(-c2nn3ncccc3c2-c2ccnc(Nc3cccc(C(F)(F)F)c3)n2)c1)c1c(F)cccc1F [D3RKN_119] |
| 0.024 | CC(C)c1nc(-c2ccc(F)c(NS(=O)(=O)c3c(F)cccc3F)c2)c(-c2ccnc(Nc3ccc(N4CCOCC4)nc3)n2)s1 |
| 0.027 | CC(C)c1nc(-c2cccc(NS(=O)(=O)c3c(F)cccc3F)c2)c(-c2ccnc(Nc3ccc(N4CCOCC4)nc3)n2)s1 [D3RKN_118] |
| 0.092 | CC(C)c1nc(-c2cccc(NS(=O)(=O)c3ccccc3)c2)c(-c2ccnc(Nc3ccc4c(c3)CN(C)CC4)n2)s1 [D3RKN_117] |
